Test system: SARS-CoV-2
Details: […]

C[C@H]1c2cccc(O)c2C(=O)C2=C(O)[C@]3(O)C(=O)C(C(N)=O)=C(O)[C@@H](N(C)C)[C@@H]3[C@@H](O)[C@@H]21 [doxycycline]
time to symptom improvement (doxycycline 100 mg twice daily with osimertinib): ≤ 1 week | time to improvement in all symptoms (doxycycline 200 mg then 100 mg daily for 5 days): ≤ 5 days
